{"source": "patent US20190029257A1", "about": "“APPLICATION FOR HERBICIDE-TOLERANT PROTEIN” (BEIJING DABEINONG TECHNOLOGY GROUP CO., LTD., priority 2016, published 2019)", "type_in_all_cases": "in vivo", "key": {"[1]": {"system": "all the transformed Arabidopsis thaliana T1 plants (ALT-1, ALT-2 and ALT-3)", "test": "Herbicide tolerance of Arabidopsis thaliana T1 plants", "details": "34 g ai/ha; summary of Table 1 and FIG. 4", "source_text": "At cytoplasmic ALT-1-01 T1 plants, At chloroplastic ALT-1-01 T1 plants, At cytoplasmic ALT-2-01 T1 plants, At chloroplastic ALT-2-01 T1 plants, At cytoplasmic ALT-3-01 T1 plants, At chloroplastic ALT-3-01 T1 plants and wild-type Arabidopsis thaliana plants were sprayed with halosulfuron-methyl (34 g ai/ha, 1-fold field concentration) and a blank solvent (water), respectively. Plants were counted for the resistance situations 14 days after spraying: those having a consistent growth status with the blank solvent (water) group after 14 days were classified as highly resistant plants, those having a bolting height less than ½ of that of the blank solvent (water) group after 14 days were classified as moderately resistant plants, those still not capable of bolting after 14 days were classified as poorly resistant plants, and those dead after 14 days were classified as non-resistant plants. Since each Arabidopsis thaliana T1 plant was an independent transformation event, a significant difference in individual T1 responses could be expected at a given dose.\nAt cytoplasmic ALT-1-01 T1 plants, At chloroplastic ALT-1-01 T1 plants, At cytoplasmic ALT-2-01 T1 plants, At chloroplastic ALT-2-01 T1 plants, At cytoplasmic ALT-3-01 T1 plants, At chloroplastic ALT-3-01 T1 plants and wild-type Arabidopsis thaliana plants in Example 4 were sprayed with iodosulfuron-methyl (10 g ai/ha, 1-fold field concentration), mesosulfuron (14 g ai/ha, 1-fold field concentration) and oxasulfuron (60 g ai/ha, 1-fold field concentration), respectively, in addition to halosulfuron-methyl (34 g ai/ha, 1-fold field concentration) and the blank solvent (water). Plants were counted for the resistance situation 14 days after spraying: those having a consistent growth status with the blank solvent (water) group after 14 days were classified as highly resistant plants, those having a bolting height less than ½ of that of the blank solvent (water) group after 14 days were classified as moderately resistant plants, those still not capable of bolting after 14 days were classified as poorly resistant plants, and those dead after 14 days were classified as non-resistant plants. Since each Arabidopsis thaliana T1 plant was an independent transformation event, a significant difference in individual T1 responses could be expected at a given dose."}, "[2]": {"system": "transgenic soybean plants (ALT-1, ALT-2 and ALT-3)", "test": "Halosulfuron-methyl tolerance of soybean plants", "details": "34 g ai/ha; summary of Table 3", "protocol": "Gm cytoplasmic ALT-1-01 soybean plants, Gm chloroplastic ALT-1-01 soybean plants, Gm cytoplasmic ALT-2-01 soybean plants, Gm chloroplastic ALT-2-01 soybean plants, Gm cytoplasmic ALT-3-01 soybean plants, Gm chloroplastic ALT-3-01 soybean plants and wild-type soybean plants were respectively taken and sprayed with halosulfuron-methyl (34 g ai/ha, 1-fold field concentration) and a blank solvent (water). The damage degree caused by the herbicide was measured for each plant according to the leaf curl degree and the growth point damage degree 3 days after spraying (3 DAT), 7 days after spraying (7 DAT), 14 days after spraying (14 DAT) and 21 days after spraying (21 DAT), respectively: considering conditions of leaves being flat as the untreated plants and growth points being intact as having a damage degree of 0%; considering conditions of veins being locally browned, new leaves being malformed and plant growth being slow as having a damage degree of 50%; and considering conditions of veins being purple to whole plant being dead and growth points being browned and dry as having a damage degree of 100%. […]"}, "[3]": {"system": "wild-type maize plants (CK2)", "test": "Halosulfuron-methyl tolerance of maize plants (damage degree)", "design": "Average damage % 3 DAT / Average damage % 7 DAT / Average damage % 14 DAT / Average damage % 21 DAT: dose or concentration left out as unconfirmed", "protocol": "The herbicide tolerance effects of Zm cytoplasmic ALT-1-02 maize plants, Zm chloroplastic ALT-1-02 maize plants, Zm cytoplasmic ALT-2-02 maize plants, Zm chloroplastic ALT-2-02 maize plants, Zm cytoplasmic ALT-3-02 maize plants, Zm chloroplastic ALT-3-02 maize plants and wild-type maize plants on halosulfuron-methyl were detected (at V3-V4 stage), respectively.\n[…] The damage degree caused by the herbicide was measured for each plant according to the plant growth status 3 days after spraying (3 DAT), 7 days after spraying (7 DAT), 14 days after spraying (14 DAT) and 21 days after spraying (21 DAT), respectively: considering a growth status equivalent to that of the untreated plants as having a damage degree of 0%; considering conditions of leaves being partially chlorotic and yellow but substantially not affecting the plant normal growth as having a damage degree of 50%; and considering the whole plant being purple and dying as having a damage degree of 100%. There were 2 strains in Zm cytoplasmic ALT-1-02 maize plants in total (S13 and S14), 2 strains in Zm chloroplastic ALT-1-02 maize plants in total (S15 and S16), 2 strains in Zm cytoplasmic ALT-2-02 maize plants in total (S17 and S18), 2 strains in Zm chloroplastic ALT-2-02 maize plants in total (S19 and S20), 2 strains in Zm cytoplasmic ALT-3-02 maize plants in total (S21 and S22), 2 strains in Zm chloroplastic ALT-3-02 maize plants in total (S23 and S24), and 1 strain in wild- type maize plants (CK2) in total; and 10-15 plants were selected from each strain and tested."}}}
{"compound": "COC(=O)c1c(Cl)nn(C)c1S(=O)(=O)NC(=O)Nc1nc(OC)cc(OC)n1", "note": "[halosulfuron-methyl, 3-chlorine-5-(4,6-dimethoxypyrimidine-2-aminocarbonylaminosulphonyl)-1-methylpyrazole-4-carboxylic acid methyl ester]", "values": [{"measurement": "tolerance of the plants to the herbicide", "setting": "[1]", "result": "conferred halosulfuron-methyl herbicide tolerance to individual Arabidopsis thaliana plants"}, {"measurement": "tolerance of the plants to the herbicide", "setting": "[2]", "result": "high level of halosulfuron-methyl herbicide tolerance"}, {"measurement": "damage to the plants", "setting": "[3]; 36 g ai/ha, summary of Table 4", "result": "some slight damage"}, {"measurement": "Average damage % 3 DAT", "setting": "[3]; strain CK2, 3 days after spraying", "result": 10, "unit": "%"}, {"measurement": "Average damage % 7 DAT", "setting": "[3]; strain CK2, 7 days after spraying", "result": 20, "unit": "%"}, {"measurement": "Average damage % 14 DAT", "setting": "[3]; strain CK2, 14 days after spraying", "result": 19, "unit": "%"}, {"measurement": "Average damage % 21 DAT", "setting": "[3]; strain CK2, 21 days after spraying", "result": 18, "unit": "%"}]}
